# Assay results published in patent US20120232062A1, “AZAINDAZOLES TO TREAT FLAVIVIRIDAE VIRUS INFECTION” (EIGER BIOPHARMACEUTICALS, INC., priority 2009, published 2012).
# Test system: Caco-2 cell line
# Test: Caco-2 permeability testing
# Format: in vitro ADME, human
# Set-up: Efflux (first figure of Efflux/permeability), Papp (B-A) / Permeability (second figure of Efflux/permeability), Papp (A-B): unit not given here
# Settings: for Permeability (second figure of Efflux/permeability), Papp (A-B): Caco-2, A-B; for Permeability (second figure of Efflux/permeability), Papp (A-B) / Efflux (first figure of Efflux/permeability), Papp (B-A): 90 min; for Efflux (first figure of Efflux/permeability), Papp (B-A): Caco-2, B-A; for intestinal absorption predicted by in vitro PK profiles: in words
# Description: Intestinal epithelium permeability is a critical characteristic that determines the rate and extent of human absorption and affects bioavailability of a drug candidate. Poor intestinal permeability leads to limited absorption. Generally, higher absorption is preferred. The Caco-2 cell line is a human colon adeno-carcinoma cell line that resembles the epithelial lining of the human small intestine. Several transport proteins that are expressed in human intestinal epithelium are also expressed in the Caco-2 cell model. Some transporter proteins are efflux systems which mediate the secretion of compounds from inside the cell back to the apical lumen (representative of the intestinal lumen), limiting overall absorption. In a permeability assay, the apparent permeability coefficient is measured between the apical to basolateral sides of a cell monolayer, Papp (A-B), and the basolateral to the apical side, Papp (B-A). Papp (A-B)<2×10^−6 cm/s is predictive of low permeability to the basolateral side, 2×10^−6 cm/s<Papp (A-B)<20×10^−6 cm/s is predictive of medium permeability, and Papp (A-B)>20×10^−6 cm/s is predictive of high permeability. In the B-A permeability assay, Papp (B-A) is measured and compounds evaluated for efflux potential. Together, these assay results are reported as a ratio of Papp (B-A) to Papp (A-B). Papp (B-A)/Papp (A-B)>3 are likely to be transported by one of the efflux systems, and have poor absorption. Papp (B-A)/Papp (A-B)<3 are likely to show reasonable intestinal absorption. An in vitro drug absorption assay suitable for use in predicting intestinal absorption of the compounds useful in the methods of the invention is described in this example. The embodiments of this assay described in this example were developed by Shanghai ChemPartner Co., Ltd., a corporation of China with its principal office located at 720 Cailun Road, Building No. 3, Shanghai 201203, China.
# Caco-2 (ATCC, catalog No. HTB-37™) cells are cultured in growth medium (MEM+10% FBS+1% NEAA). The growth medium is prepared by adding 50 mL FBS and 5 mL NEAA to 445 mL of MEM or by adjusting the final volume according to actual needs. Trypsin-EDTA (Invitrogen, Cat #25200-072) is also used.
# Hanks Balanced Salt Solution (HBSS, Invitrogen, Cat #14025-092) with 25 mM HEPES, pH 7.4, HBSS buffer with 0.2% DMSO (50 μL DMSO into 25 ml HBSS buffer), and HBSS buffer with 0.4% DMSO (100 μL DMSO into 25 ml HBSS buffer) are used.
# 10 mM stock solutions of a compound is prepared in DMSO and Lucifer Yellow in assay buffer using the formula (Actual Weight/Molecular Weight)/mL solvent=10 mM. Erythromycin, Metoprolol, and Atenolol are used as reference compounds. Donor solutions (10 μM for compounds and 5 μM for Lucifer Yellow) are prepared. For A-B, 4 μL of 10 mM compound stock solution and 2 μL of 10 mM Lucifer Yellow stock solution are loaded into 4 mL of HBSS buffer, and centrifuged (5 min, 4000 rpm) to precipitate undissolved particles. Supernatants are collected for compound dosing. For B-A, 4 μL (compounds) of 10 mM compound stock solution is added to 4 mL HBSS buffer with 0.2% DMSO, and centrifuged (5 min, 4000 rpm) to precipitate undissolved particles. Supernatants are collected for compound dosing.
# Receiver solutions are prepared. For A-B, the solution is HBSS buffer with 0.4% DMSO. For B-A, 2 μL of 10 mM Lucifer Yellow stock solution is added to 4 mL of HBSS buffer with 0.2% DMSO. Compound solutions are prepared for standard curve (3 μM/1 μM/0.2 μM/0.04 μM/0.01 μM/0.005 μM):
# 1× solution: 3 μL of 20× solution (0.1-60 μM)+57 μL 0.4% DMSO HBSS+60 μL acetonitrile (ACN) with internal standard (IS, 200 ng/mL Osalmid). The assay was performed as described below
# Stock cultures are maintained in MEM+10% FBS+1% NEAA, grown in 75 cm^2 tissue culture treated flasks and split (passed) 2 times weekly to maintain desired confluence. For maintenance passage, trypsinized cells are routinely distributed into new flasks at a standard passage ratio of 1:4. […]
Structure (SMILES),"Permeability (second figure of Efflux/permeability), Papp (A-B)","Efflux (first figure of Efflux/permeability), Papp (B-A)","Efflux/Permeability ratio (desired <3) (Caco-2, Papp (B-A)/Papp (A-B))",intestinal absorption predicted by in vitro PK profiles
Cn1nc(C(=O)NC2CCN(CCN3CCCCC3)CC2)c2ccc(N3CCCCCC3)nc21 [EBP1047],11,8,0.8,moderate intestinal absorption
CCN1CCC(NC(=O)c2nn(C)c3nc(N4CCCCCC4)ccc23)CC1 [EBP1595],15,14,–,moderate intestinal absorption
Cn1nc(C(=O)NC2CCN(CCN3CCCC3)CC2)c2ccc(N3CCCCCC3)nc21 [EBP1597],9,7,–,moderate intestinal absorption
CC(C)N1CCC(NC(=O)c2nn(C)c3nc(N4CCCCCC4)ccc23)CC1 [EBP1604],–,–,–,moderate intestinal absorption
